From ChEMBL document CHEMBL1212717, “A new screening assay for allosteric inhibitors of cSrc” (Nat Chem Biol, 2009)

Key:
[1] = molecular target: T1, Proto-oncogene tyrosine-protein kinase Src (Homo sapiens, UniProt P12931); settings: 2 uM
[2] = molecular target: T2, Mitogen-activated protein kinase 14 (Homo sapiens, UniProt Q16539); settings: 2 uM
[3] = molecular target: T1, Proto-oncogene tyrosine-protein kinase Src
[4] = molecular target: T2, Mitogen-activated protein kinase 14

T1 sequence (P12931 2-536 limits assumed): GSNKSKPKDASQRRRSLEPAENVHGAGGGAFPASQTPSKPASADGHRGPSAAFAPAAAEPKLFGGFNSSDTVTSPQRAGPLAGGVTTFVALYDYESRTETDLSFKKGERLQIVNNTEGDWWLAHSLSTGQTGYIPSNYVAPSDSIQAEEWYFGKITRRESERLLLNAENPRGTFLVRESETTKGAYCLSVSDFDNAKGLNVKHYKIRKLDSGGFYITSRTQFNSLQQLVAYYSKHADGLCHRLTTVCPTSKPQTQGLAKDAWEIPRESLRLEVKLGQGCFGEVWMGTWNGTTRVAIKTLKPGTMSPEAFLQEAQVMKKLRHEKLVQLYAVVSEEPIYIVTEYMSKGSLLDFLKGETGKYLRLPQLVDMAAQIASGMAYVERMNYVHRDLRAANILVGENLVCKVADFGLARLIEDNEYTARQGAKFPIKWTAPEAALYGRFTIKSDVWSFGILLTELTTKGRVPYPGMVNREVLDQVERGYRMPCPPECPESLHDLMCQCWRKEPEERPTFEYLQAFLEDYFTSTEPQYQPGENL
T2 sequence (Q16539 whole entry): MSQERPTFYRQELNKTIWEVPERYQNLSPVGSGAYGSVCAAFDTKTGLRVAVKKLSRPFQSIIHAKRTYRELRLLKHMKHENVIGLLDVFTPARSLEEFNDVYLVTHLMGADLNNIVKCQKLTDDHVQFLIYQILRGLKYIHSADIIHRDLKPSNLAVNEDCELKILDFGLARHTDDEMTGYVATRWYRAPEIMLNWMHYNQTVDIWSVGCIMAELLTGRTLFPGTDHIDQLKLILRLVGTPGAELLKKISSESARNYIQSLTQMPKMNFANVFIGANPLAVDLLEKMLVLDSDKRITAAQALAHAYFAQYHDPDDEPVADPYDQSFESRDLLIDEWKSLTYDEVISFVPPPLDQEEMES

SMILES | T1/2 [1] [s] | T1/2 [2] [s] | IC50 [3] | Kd [4]
CC(C)(C)c1cc(NC(=O)Nc2ccc(Cl)cc2)n(-c2cccc(N)c2)n1 | 5.35 | 43.6 |  | 
CC(C)(C)c1cc(NC(=O)Nc2ccc(Cl)cc2)n(-c2c(Cl)cc(C(F)(F)F)cc2Cl)n1 |  |  | Not Active | Not Active
